Measured values published in patent US20160052926A1, “NOVEL PYRIMIDINE AND PYRIDINE COMPOUNDS AND USAGE THEREOF” (HUTCHISON MEDIPHARMA LIMITED, priority 2013, published 2016).
Where two headings read alike, the source gives them in different places.

Legend:
FGFR3 kinase = FGFR3 kinase (Homo sapiens, UniProt P22607); assay: Z-Lyte Kinase Assay of FGFR3; format: biochemical
Procedure: Z-Lyte Kinase Assay of FGFR3
The final concentrations are 1, 0.33, 0.11, 0.037, 0.012, 0.004, 0.0014, 0.00046 μM, and the final concentration of DMSO is 2%. • 3) Kinase/Peptide Mixture (P/K solution): Prepare Kinase/Peptide Mixture by diluting the kinase to 0.7 μg/ml and the Z-LYTE™ Tyr 4 peptide to 4 μM in 1.33× Kinase Buffer. Mix gently by pipetting. • 4) Phospho-peptide Solution (PP solution): Add 0.4 μl of Z-LYTE™ Tyr 4 Phospho-peptide to 99.6 μl of 1.33× Kinase Buffer. • 5) ATP Solution: Prepare ATP Solution by diluting the 10 mM of ATP in 1.33× Kinase Buffer to 300 uM. • 6) Development Solution: Dilute Development Reagent B with Development Buffer as 1:128.
Shake the plate for 30 Sec and centrifuge (1500 rpm, 1 min) • Seal the plate to protect from the light and incubate the plate for 1 hour at RT (25-30[…]) • 2) Development reaction • Add 5 μl of the Development solution to all wells • Shake the plate for 30 Sec and centrifuge (1500 rpm, 1 min) • Seal the plate to protect from the light and incubate the plate for 1 hour at RT (25-30[…]) • 3) Stop and read • Add 5 μl of the Stop reagent to all wells • Shake the plate for 30 Sec and centrifuge (1500 rpm, 1 min) • Measure the value of Coumarin (Ex400 nm, Em445 nm) and fluorescein (Ex400 nm, Em520 nm), respectively.
Inhibition rate(IR)=1−%Photest Cpd/%PhoC2
• determined with add-in software for Microsoft Excel, XLfit™ (version 2.0) from ID Business Solutions (Guildford, UK)

Recombinant human FGFR1 = Recombinant human FGFR1 (Homo sapiens, UniProt P11362); assay: Transcreener Kinase Assay of FGFR1; format: biochemical
Procedure: Transcreener Kinase Assay of FGFR1
(§1) Prepare Solution • Compounds were solved in DMSO and were diluted with assay buffer to 5 folds of final concentration keeping the DMSO concentration at 5%. Further dilution are needed to make final concentrations are at 1, 0.33, 0.11, 0.037, 0.012, 0.004, 0.0014, 0.0005 μM; (the final concentration of DMSO is 1%). • Enzyme/Substrate stock Preparation: Recombinant human FGFR1 and Poly E4Y are both diluted in assay buffer.
(§2) Enzymatic Reaction • In a 96-well plate, Add 5 μL of compound or control. (positive control: 5 μL of 5% DMSO; negative control: 5 μL of 500 mM EDTA) into desired wells; • Add 10 μL of Enzyme/Substrate stock into each well; • Add 10 μL of ATP Diluents to initiate the enzyme reaction and votex the plate immediately on a plate shaker; • For the wells to make standard curve, add 5 μL of 5% DMSO, 10 μL of assay buffer and 10 μL of ATP standard curve stock. • Incubate the plate for 45 min at 28[…] on a plate shaker in a low speed.
Excitation wavelength: 610 nm, Emission wavelength: 670 nm.
(§3) • [ADP] in Compound well represents the ADP concentration in compound well. • [ADP] in Positive control well represents the ADP concentration in 5% DMSO well • Conversion of mP value to ADP concentration is calculated based on the formula which determined by standard curve. And mP value is measured by following the instruction provided by BellBrook Labs. (www.bellbrooklabs.com). 6. IC50: calculated using XL-Fit 2.0 software.

KG-1 = assay: Cellular Proliferation Assay (Cell Counting Kit-8), KG-1; format: cell-based; conditions: Homo sapiens, KG1 cells, 72 hours
Procedure: (§4) Cellular Proliferation Assay
(§5) • KG-1 (ATCC Accession No. CCL-246), • SNU-16 (ATCC Accession No. CRL-5974), • RT-112 (ECACC Accession No. 85061106)
(§6) • FGFR related cancer cell proliferation is measured in 96-well plates using Cell Counting Kit-8 (Dojindo CK04-13). • Seed 30000 cells/well of KG1, 5000 cells/well of SNU16, and 1000 cells/well of RT112 in a volume of 100 μL/well in growth media. • After 24 hours, dilute the compound to 10, 3.3, 1.1, 0.37, 0.12, 0.04, 0.013, 0.004 μM, keeping the DMSO concentration at 5%. • Add 10 μL of 8-point compound series to the wells of culturing cells. • Incubate at 37° C. and 5% CO2 for 72 hours • Add 10 μL/well of CCkit8 and incubate at 37° C. and 5% CO2 for an hour • Detect the optical density of each well at 450 nm on Labsystems Multiskan K3.
(§7) • ODcompound well represents the optical density of cells treated with compound. • ODcell well represents the optical density of cells without compounds treatment. (only 0.5% DMSO) • ODcontrol well represents the optical density of culture media background
(§8) The concentration of compound providing 50% of proliferation inhibition was calculated using Excel Fit.

RT-112 = assay: Cellular Proliferation Assay (Cell Counting Kit-8), RT-112; format: cell-based; conditions: Homo sapiens, RT-112 cells, 72 hours
Procedure: as §4, §5, §6, §7, §8

SNU-16 = assay: Cellular Proliferation Assay (Cell Counting Kit-8), SNU-16; format: cell-based; conditions: Homo sapiens, SNU-16 cells, 72 hours
Procedure: as §4, §5, §6, §7, §8

Recombinant human FGFR2 = Recombinant human FGFR2 (Homo sapiens, UniProt P21802); assay: Transcreener Kinase Assay of FGFR2; format: biochemical
Procedure: Transcreener Kinase Assay of FGFR2
as §1, with “•” for “Prepare Solution •”, “FGFR2” for “FGFR1”, “buffer. The final concentration is 0.3 ng/μL for FGFR2 and 62.5 ng/μL for Poly E4Y. The mixture is being kept in ice before use; • Prepare ATP Diluents, 10 mM ATP is diluted in assay buffer, the final concentration is 25 μM; • Prepare ADP Diluents: diluted ADP (500 μM) in assay buffer, the final concentration is 25 μM; • Prepare ATP standard curve stock as following:” for “buffer.”
as §2, with “•” for “Enzymatic Reaction •”
• Detection Mix Preparation: The mixture is made by dilution with MilliQ water; as following: ADP Alexa633 tracer (1:100), ADP antibody (1:158), and stop & detect buffer (1:10); • Tracer Only control Preparation: The mixture is made by dilution with MilliQ water; as following: ADP Alexa633 tracer (1:100), and stop & detect buffer (1:10) • No Tracer control Preparation: stop & detect buffer is diluted with MilliQ water; by 10 fold. • Add 25 μL of detection mix, Tracer Only control and No Tracer control into corresponding wells, respectively; • Incubate at 28 °C for 1 h, on a plate shaker in a low speed; • Measure florescence polarization (FP) on TECAN F500. Excitation wavelength: 610 nm, Emission wavelength: 670 nm.
as §3

Chain of Recombinant human FGFR1 (P11362 22-822): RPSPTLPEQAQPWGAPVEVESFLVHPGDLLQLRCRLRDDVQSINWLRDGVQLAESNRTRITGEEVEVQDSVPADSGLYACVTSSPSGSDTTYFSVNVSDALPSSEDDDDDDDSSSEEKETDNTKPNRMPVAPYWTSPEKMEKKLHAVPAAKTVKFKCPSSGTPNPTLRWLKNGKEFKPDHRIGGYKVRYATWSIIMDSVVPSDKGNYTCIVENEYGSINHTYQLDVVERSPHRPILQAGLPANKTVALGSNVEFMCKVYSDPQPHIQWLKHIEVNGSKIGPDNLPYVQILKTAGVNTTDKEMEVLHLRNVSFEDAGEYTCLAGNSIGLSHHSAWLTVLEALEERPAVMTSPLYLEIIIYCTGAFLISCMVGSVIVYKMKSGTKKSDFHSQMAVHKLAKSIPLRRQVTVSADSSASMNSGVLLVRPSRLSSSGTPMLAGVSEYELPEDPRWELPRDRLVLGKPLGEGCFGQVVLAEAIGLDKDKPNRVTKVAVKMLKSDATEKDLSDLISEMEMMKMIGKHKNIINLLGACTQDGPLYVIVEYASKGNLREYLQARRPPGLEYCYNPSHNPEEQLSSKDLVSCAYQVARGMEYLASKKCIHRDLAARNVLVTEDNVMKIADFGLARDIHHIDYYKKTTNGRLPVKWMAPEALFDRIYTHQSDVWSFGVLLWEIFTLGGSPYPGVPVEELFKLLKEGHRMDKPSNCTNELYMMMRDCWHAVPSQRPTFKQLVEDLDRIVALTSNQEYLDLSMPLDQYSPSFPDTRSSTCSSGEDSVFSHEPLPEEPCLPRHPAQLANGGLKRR
Chain of FGFR3 kinase (P22607 23-806): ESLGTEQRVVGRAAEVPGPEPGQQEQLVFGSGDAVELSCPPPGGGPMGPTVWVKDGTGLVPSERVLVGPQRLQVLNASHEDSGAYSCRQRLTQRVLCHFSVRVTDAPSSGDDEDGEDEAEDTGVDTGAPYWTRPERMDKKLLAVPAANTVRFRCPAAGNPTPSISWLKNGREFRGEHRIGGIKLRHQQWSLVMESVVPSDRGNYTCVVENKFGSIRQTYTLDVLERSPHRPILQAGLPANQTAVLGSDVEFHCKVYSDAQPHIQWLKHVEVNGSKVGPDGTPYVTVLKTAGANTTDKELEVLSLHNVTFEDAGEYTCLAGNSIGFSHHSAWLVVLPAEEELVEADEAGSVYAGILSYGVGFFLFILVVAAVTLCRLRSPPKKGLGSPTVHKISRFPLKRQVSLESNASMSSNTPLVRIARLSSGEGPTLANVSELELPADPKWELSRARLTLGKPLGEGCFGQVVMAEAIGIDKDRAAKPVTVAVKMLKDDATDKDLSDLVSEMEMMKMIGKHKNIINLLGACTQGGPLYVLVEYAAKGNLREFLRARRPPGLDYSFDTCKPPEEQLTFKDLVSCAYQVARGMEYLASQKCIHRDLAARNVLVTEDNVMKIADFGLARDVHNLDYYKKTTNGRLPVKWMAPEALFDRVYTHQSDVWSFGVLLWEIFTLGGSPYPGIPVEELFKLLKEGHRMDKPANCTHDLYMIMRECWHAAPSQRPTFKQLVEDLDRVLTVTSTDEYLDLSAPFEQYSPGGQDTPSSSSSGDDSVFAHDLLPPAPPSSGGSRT
Chain of Recombinant human FGFR2 (P21802 22-821): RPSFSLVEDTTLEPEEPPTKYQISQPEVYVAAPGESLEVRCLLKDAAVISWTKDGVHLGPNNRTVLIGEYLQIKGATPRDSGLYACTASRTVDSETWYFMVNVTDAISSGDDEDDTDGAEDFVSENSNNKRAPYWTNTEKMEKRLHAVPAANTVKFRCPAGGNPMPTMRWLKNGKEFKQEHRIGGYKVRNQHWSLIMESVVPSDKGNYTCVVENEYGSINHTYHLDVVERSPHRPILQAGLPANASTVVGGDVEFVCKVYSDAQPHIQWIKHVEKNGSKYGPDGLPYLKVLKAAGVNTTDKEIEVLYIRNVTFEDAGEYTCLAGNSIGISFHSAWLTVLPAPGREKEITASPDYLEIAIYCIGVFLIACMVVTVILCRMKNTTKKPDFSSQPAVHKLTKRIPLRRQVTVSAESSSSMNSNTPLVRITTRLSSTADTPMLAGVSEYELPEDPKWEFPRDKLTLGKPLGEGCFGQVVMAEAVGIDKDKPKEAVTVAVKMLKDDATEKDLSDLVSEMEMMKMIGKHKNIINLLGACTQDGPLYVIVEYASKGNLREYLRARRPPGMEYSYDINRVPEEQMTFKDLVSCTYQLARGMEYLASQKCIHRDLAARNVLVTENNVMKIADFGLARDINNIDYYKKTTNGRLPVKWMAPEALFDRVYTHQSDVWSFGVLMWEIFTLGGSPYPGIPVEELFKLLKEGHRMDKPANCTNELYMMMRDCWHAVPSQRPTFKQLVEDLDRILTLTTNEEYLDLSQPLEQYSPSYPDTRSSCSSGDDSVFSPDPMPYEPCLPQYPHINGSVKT

Compound	IC50 (FGFR3 kinase) [nM]	IC50 (Recombinant human FGFR1; read-out: FGFR1 (FP) IC50) [nM]	IC50 (KG-1) [nM]	IC50 (RT-112) [nM]	IC50 (SNU-16) [nM]	IC50 (Recombinant human FGFR2; read-out: FGFR2 (FP) IC50) [nM]	IC50 (Recombinant human FGFR1; FGFR1 (FP) IC50) [nM]	IC50 (Recombinant human FGFR2; FGFR2 (FP) IC50) [nM]
CCN1CCN(c2ccc(Nc3ncc(CCc4cc(OC)cc(C(=O)NC)c4)cn3)cc2)CC1 [Compound 1, 3-(2-(2-((4-(4-ethylpiperazin-1-yl)phenyl)amino)pyrimidin-5-yl)ethyl)-5-methoxy-N-methylbenzamide]	28	24	49	612	95	19	–	–
CCn1cc(Nc2ncc(/C=C/c3c(F)c(C(=O)NC)cc(OC)c3Cl)cn2)cn1 [Compound 2]	17	17	17	19	31	10	–	–
CCn1cc(Nc2ncc(/C=C/c3cc(C(=O)NC)cc(OC)c3Br)cn2)cn1 [Compound 3]	–	–	72	370	134	–	–	–
CNC(=O)c1cc(OC)c(Cl)c(/C=C/c2cnc(Nc3ccc(N4C[C@@H](C)N[C@@H](C)C4)cc3)nc2)c1F [Compound 8]	14	6	11	19	14	5	–	–
CCN1CCN(c2ccc(Nc3ncc(CCc4cc(C(=O)NOC)cc(OC)c4C)cn3)cc2)CC1 [Compound 52]	5	1	4	–	5	2	–	–
CCN1CCN(c2ccc(Nc3ncc(CCc4cc(C(=O)NC)cc(OC)c4Cl)cn3)cc2)CC1 [Compound 56]	9	4	7	–	17	4	–	–
CCN1CCN(c2ccc(Nc3ncc(CCc4cc(C(=O)NC5CC5)cc(OC)c4F)cn3)cc2)CC1 [Compound 57]	14	8	16	–	32	9	–	–
CCN1CCN(c2ccc(Nc3ncc(CCc4cc(C(=O)NOC)cc(OC)c4Cl)cn3)cc2)CC1 [Compound 59]	2	3	2	–	4	2	–	–
CNC(=O)c1cc(CCc2cnc(Nc3ccnnc3)nc2)c(F)c(OC)c1 [Compound 61]	62	54	400	–	158	17	–	–
CCN1CCN(c2ccc(Nc3ccc(CCc4cc(OC)cc(C(=O)NOC)c4)cn3)cn2)CC1 [Compound 75]	61	41	123	–	94	33	–	–
CCN1CCN(c2cc(F)cc(Nc3ncc(CCc4cc(OC)cc(C(=O)NOC)c4)cn3)c2)CC1 [Compound 77]	4	5	11	–	12	3	–	–
CNC(=O)c1cc(CCc2cnc(Nc3ccn(C)c(=O)c3)nc2)c(F)c(OC)c1 [Compound 93]	11	18	125	–	47	9	–	–
CNC(=O)c1cc(CCc2cnc(Nc3ccc4nnnn4c3)nc2)c(F)c(OC)c1 [Compound 96]	119	63	161	–	150	44	–	–
CONC(=O)c1cc(CCc2cnc(Nc3ccc(OC)cc3)nc2)cc(OC)c1 [Compound 106]	35	10	40	–	33	7	–	–
CONC(=O)c1cc(CCc2cnc(Nc3ccc(Cl)cc3)nc2)cc(OC)c1 [Compound 113]	146	48	148	–	89	18	–	–
CCS(=O)(=O)n1cc(Nc2ncc(CCc3cc(C(=O)NC)cc(OC)c3F)cn2)cn1 [Compound 140, 3-(2-(2-(1-(ethylsulfonyl)-1H-pyrazol-4-ylamino)pyrimidin-5-yl)ethyl)-4-fluoro-5-methoxy-N-methylbenzamide]	60	–	152	438	62	16	–	–
CNC(=O)c1cc(CCc2cnc(Nc3cnn(CC4CC4)c3)nc2)c(F)c(OC)c1 [Compound 141, 3-(2-(2-(1-(cyclopropylmethyl)-1H-pyrazol-4-ylamino)pyrimidin-5-yl)ethyl)-4-fluoro-5-methoxy-N-methylbenzamide]	–	–	15	112	–	–	11	5
CNC(=O)c1cc(COc2cnc(Nc3cnn(C)c3)nc2)c(Cl)c(OC)c1 [Compound 183]	–	7	9	14	8	5	–	–
CCn1cc(Nc2ncc(OCc3cc(C(=O)NC)cc(OC)c3Cl)cn2)cn1 [Compound 184]	–	9	5	53	10	7	–	–
